Test results taken from the supplement of paper PMC4862054.

How the values were obtained:
Settings in all cases: incubation time: 72 h
[1] = system: MDA-MB-468; experiment: normalised response (% of control), CellTox Green; higher = less cell death (100 = DMSO, 0 = benzethonium chloride kill control)
Procedure, shortened: (§1)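 Values are normalised signals, each belonging to one concentration of the series. Breast cancer cells (20 µl suspension) were seeded into 384-well plates with compound at 5 concentrations in 10-fold steps over a compound-specific 10,000-fold range and incubated 72 h. Readouts were CellTox Green fluorescence (485/520 nm), then CellTiter-Glo luminescence after 10 min at room temperature, with each plate set to 0.1 % DMSO as 100 and a positive kill control as 0.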

[2] = system: DU-4475; experiment: as above
Procedure, shortened: as §1

[3] = system: CAL-85-1; experiment: as above
Procedure, shortened: as §1

[4] = system: MDA-MB-231; experiment: as above
Procedure, shortened: as §1

[5] = system: MCF-10A; experiment: as above
Procedure, shortened: as §1

[6] = system: CAL-51; experiment: as above
Procedure, shortened: as §1

[7] = system: HCC1143; experiment: as above
Procedure, shortened: as §1

[8] = system: MFM-223; experiment: as above
Procedure, shortened: as §1

[9] = system: CAL-120; experiment: as above
Procedure, shortened: as §1

[10] = system: BT-474; experiment: as above
Procedure, shortened: as §1

[11] = system: BT-549; experiment: as above
Procedure, shortened: as §1

[12] = system: Hs578T; experiment: as above
Procedure, shortened: as §1

[13] = system: HCC1599; experiment: as above
Procedure, shortened: as §1

[14] = system: MDA-MB-436; experiment: as above
Procedure, shortened: as §1

[15] = system: MDA-MB-453; experiment: as above
Procedure, shortened: as §1

[16] = system: HCC1937; experiment: as above
Procedure, shortened: as §1

[17] = system: CAL-148; experiment: as above
Procedure, shortened: as §1

[18] = system: HDQ-P1; experiment: as above
Procedure, shortened: as §1

[19] = system: MDA-MB-468; experiment: normalised response (% of control), CellTiter-Glo; higher = more viable cells (100 = DMSO, 0 = benzethonium chloride kill control)
Procedure, shortened: as §1

[20] = system: DU-4475; experiment: as above
Procedure, shortened: as §1

[21] = system: CAL-85-1; experiment: as above
Procedure, shortened: as §1

[22] = system: MDA-MB-231; experiment: as above
Procedure, shortened: as §1

[23] = system: MCF-10A; experiment: as above
Procedure, shortened: as §1

[24] = system: CAL-51; experiment: as above
Procedure, shortened: as §1

[25] = system: HCC1143; experiment: as above
Procedure, shortened: as §1

[26] = system: SK-BR-3; experiment: as above
Procedure, shortened: as §1

[27] = system: MFM-223; experiment: as above
Procedure, shortened: as §1

[28] = system: CAL-120; experiment: as above
Procedure, shortened: as §1

[29] = system: BT-474; experiment: as above
Procedure, shortened: as §1

[30] = system: BT-549; experiment: as above
Procedure, shortened: as §1

[31] = system: Hs578T; experiment: as above
Procedure, shortened: as §1

[32] = system: HCC1599; experiment: as above
Procedure, shortened: as §1

[33] = system: MDA-MB-436; experiment: as above
Procedure, shortened: as §1

[34] = system: MDA-MB-453; experiment: as above
Procedure, shortened: as §1

[35] = system: HCC1937; experiment: as above
Procedure, shortened: as §1

[36] = system: CAL-148; experiment: as above
Procedure, shortened: as §1

[37] = system: HDQ-P1; experiment: as above
Procedure, shortened: as §1

Row | Compound | normalised response [1] [%] | normalised response [2] [%] | normalised response [3] [%] | normalised response [4] [%] | normalised response [5] [%] | normalised response [6] [%] | normalised response [7] [%] | normalised response [8] [%] | normalised response [9] [%] | normalised response [10] [%] | normalised response [11] [%] | normalised response [12] [%] | normalised response [13] [%] | normalised response [14] [%] | normalised response [15] [%] | normalised response [16] [%] | normalised response [17] [%] | normalised response [18] [%] | normalised response [19] [%] | normalised response [20] [%] | normalised response [21] [%] | normalised response [22] [%] | normalised response [23] [%] | normalised response [24] [%] | normalised response [25] [%] | normalised response [26] [%] | normalised response [27] [%] | normalised response [28] [%] | normalised response [29] [%] | normalised response [30] [%] | normalised response [31] [%] | normalised response [32] [%] | normalised response [33] [%] | normalised response [34] [%] | normalised response [35] [%] | normalised response [36] [%] | normalised response [37] [%]
1 | CO[C@H](C(=O)[C@@H](O)[C@@H](C)O)[C@@H]1Cc2cc3cc(O[C@H]4C[C@@H](O[C@@H]5C[C@@H](O)[C@H](O)[C@@H](C)O5)[C@H](O)[C@@H](C)O4)c(C)c(O)c3c(O)c2C(=O)[C@H]1O[C@H]1C[C@@H](O[C@@H]2C[C@@H](O)[C@@H](O[C@@H]3C[C@](C)(O)[C@H](O)[C@@H](C)O3)[C@@H](C)O2)[C@H](O)[C@@H](C)O1 [Plicamycin] (100 nM) | 131 | 102 | 99 | 109 | 93.4 | 85.5 | 101 | 100 | 102 | 99.4 | 98.7 | 86 | 106 | 96.8 | 105 | 119 | 107 | 94.3 | 105 | 105 | 100 | 104 | 108 | 66.4 | 104 | 102 | 103 | 103 | 100 | 103 | 104 | 99.4 | 103 | 114 | 98 | 112 | 99.5
2 | CC/C(=C(\c1ccccc1)c1ccc(OCCN(C)C)cc1)c1ccccc1 [Tamoxifen] (100 nM) | 71.4 | 105 | 105 | 91.3 | 106 | 115 | 113 | 103 | 103 | 100 | 99.3 | 97.7 | 103 | 74.1 | 100 | 91.9 | 106 | 87.8 | 98 | 105 | 99.9 | 107 | 107 | 91.5 | 108 | 99.4 | 103 | 110 | 97.9 | 99.2 | 105 | 101 | 99.1 | 102 | 100 | 110 | 105
